In EPA's ToxValDB 9.5 (doi:10.2903/j.efsa.2009.217r):
Values after ≈ are worked out from the molar mass of the structure shown.

What was measured:
[1] = tested on: Anas platyrhynchos; details: oral, mortality
[2] = tested on: Bibionidae; details: chronic/long-term; duration: 28 days
[3] = tested on: Rattus norvegicus
[4] = tested on: Oncorhynchus mykiss; details: acute; duration: 96 hours; mortality
[5] = tested on: Colinus virginianus; details: acute; oral; diet; mortality
[6] = tested on: Tagia sp.; details: acute; duration: 14 days; mortality
[7] = tested on: Oryctolagus sp.; details: reproduction developmental; body weight
[8] = tested on: Pimephales promelas; details: chronic/long-term; duration: 21 days; growth

Oc1ccccc1-c1ccccc1 [2-Phenylphenol]
LD50 ([1]; acute, unspecified): > 2250 mg/kg-day
LC50 ([1]; short-term, feed): > 1900 mg/kg-day
NOEC [2]: 1.85 mg/L
LD50 ([3]; acute, oral, mortality): 2730 mg/kg-day
NOAEL ([3]; chronic, duration: 2 years, oral, Fischer 344, histopathology: neoplastic): 39 mg/kg-day
NOAEL ([3]; reproduction developmental): 500 mg/kg-day
LC50 [4]: 4 mg/L (≈ 23.5 µM)
LC50 [5]: > 2810 mg/kg-day
LC50 [6]: 198 mg/kg
NOAEL [7]: 100 mg/kg-day
NOEC [8]: 0.036 mg/L
